According to patent publication US10166216B2 (Rigel Pharmaceuticals, Inc., priority 2006, dated 2019):

Target: Axl (Homo sapiens (Human), UniProt P30530)
Assay: Phospho-Akt in-cell Western assay (Axl-antibody cross-linking stimulation)
Format: cell-based
Conditions: inhibition of Axl activity
Procedure, shortened: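 HeLa cells on poly-L-lysine, starved 24 hrs with Axl/Fc, pre-treated with compound 1 hr at 37° C., then stimulated 5 min with Axl primary/secondary antibody cluster. Fixed cells probed for phospho-Akt by chemiluminescent in-cell Western; signal normalized to crystal violet cell number.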

[1] = phospho-Akt in-cell Western assay
[2] = Hela cells, phospho-Akt readout, Table 1, formula (Ia1)
[3] = Hela cells, phospho-Akt readout, Table 5, formula (Ia3)

Sequence of Axl (P30530 26-894): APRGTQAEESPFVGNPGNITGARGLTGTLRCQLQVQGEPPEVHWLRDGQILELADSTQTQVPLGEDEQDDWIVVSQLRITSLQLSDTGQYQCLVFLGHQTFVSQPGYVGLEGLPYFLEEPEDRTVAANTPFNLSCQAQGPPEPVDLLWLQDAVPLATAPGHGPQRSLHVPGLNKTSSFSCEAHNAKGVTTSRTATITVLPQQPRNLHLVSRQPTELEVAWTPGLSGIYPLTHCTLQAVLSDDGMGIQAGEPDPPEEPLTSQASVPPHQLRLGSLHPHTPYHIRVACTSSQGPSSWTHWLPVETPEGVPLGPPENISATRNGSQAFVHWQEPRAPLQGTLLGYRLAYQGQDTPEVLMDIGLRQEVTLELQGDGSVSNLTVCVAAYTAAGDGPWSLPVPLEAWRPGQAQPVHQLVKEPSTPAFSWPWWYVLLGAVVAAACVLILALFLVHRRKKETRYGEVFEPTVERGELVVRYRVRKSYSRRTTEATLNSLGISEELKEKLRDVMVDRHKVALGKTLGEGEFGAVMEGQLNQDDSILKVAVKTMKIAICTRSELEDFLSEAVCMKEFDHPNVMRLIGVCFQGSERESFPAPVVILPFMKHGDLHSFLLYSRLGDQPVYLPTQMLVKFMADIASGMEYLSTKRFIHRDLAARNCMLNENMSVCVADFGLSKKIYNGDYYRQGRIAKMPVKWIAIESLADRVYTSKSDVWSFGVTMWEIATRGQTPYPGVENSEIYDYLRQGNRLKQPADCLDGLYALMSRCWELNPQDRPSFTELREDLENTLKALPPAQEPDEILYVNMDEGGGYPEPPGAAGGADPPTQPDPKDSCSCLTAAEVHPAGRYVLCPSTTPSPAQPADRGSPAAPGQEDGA

| IC50 [1] | IC50 [2] | SMILES | other results |
| --- | --- | --- | --- |
| < 1000 nM |  | COc1cc2ncnc(-n3nc(Nc4ccc(N5CCN(C(C)=O)CC5)cc4)nc3N)c2cc1OC [Compound 107, 1-(4-(4-(5-amino-1-(6,7-dimethoxyquinazolin-4-yl)-1H-1,2,4-triazol-3-ylamino)phenyl)piperazin-1-yl)ethanone] |  |
| < 1000 nM |  | CN1CCN(c2ccc(Nc3nc(N)n(-c4nccc5ccccc45)n3)cc2)CC1 [Compound 84, 1-(isoquinolin-1-yl)-N^3-(4-(4-methylpiperazin-1-yl)phenyl)-1H-1,2,4-triazole-3,5-diamine] |  |
|  | > 20000 nM | CNc1nc(Nc2ccc(OCCN3CCCC3)cc2)nn1-c1ccccn1 [Compound 6, N^5-methyl-1-(pyridin-2-yl)-N^3-(4-(2-(pyrrolidin-1-yl)ethoxy)phenyl)-1H-1,2,4-triazole-3,5-diamine] |  |
| < 1000 nM |  | Cc1cc(Nc2nc(N)n(-c3nc(Cl)nc4c(C)csc34)n2)ccc1N1CCN(C2CC3CCC2C3)CC1 (stereo not drawn) [Compound 225, 1-(7-methyl-2-chlorothieno[3,2-d]pyrimidin-4-yl)-N^3-(3-methyl-4-(4-(bicyclo[2.2.1]heptan-2-yl)piperazin-1-yl)phenyl)-1H-1,2,4-triazole-3,5-diamine] |  |
| < 1000 nM |  | Cc1csc2c(-n3nc(Nc4ccc(N5CCN(C6CC7CCC6C7)[C@H](C)C5)c(F)c4)nc3N)ncnc12 (stereo partly drawn) [Compound 248, 1-(7-methylthieno[3,2-d]pyrimidin-4-yl)-N^3-(3-fluoro-4-(3-(R)-methyl-4-(bicyclo[2.2.1]heptan-2-yl)piperazin-1-yl)phenyl)-1H-1,2,4-triazole-3,5-diamine] |  |
|  |  | CN(C)[C@H]1CCN(c2ccc(Nc3nc(N)n(-c4nccc5ccccc45)n3)cc2)C1 [Compound 165, N^3-(4-((S)-3-(dimethylamino)pyrrolidin-1-yl)phenyl)-1-(isoquinolin-1-yl)-1H-1,2,4-triazole-3,5-diamine] | IC50 [3]: < 1000 nM |
|  | < 1000 nM | Nc1nc(Nc2ccc(OCCN3CCCC3)cc2)nn1-c1ncnc2sccc12 [Compound 51, N^3-(4-(2-(pyrrolidin-1-yl)ethoxy)phenyl)-1-(thieno[2,3-d]pyrimidin-4-yl)-1H-1,2,4-triazole-3,5-diamine] |  |
| < 1000 nM |  | Cc1nnc(-n2nc(Nc3ccc(N4CCN(C5CC6CCC5C6)CC4)cc3)nc2N)c2sccc12 (stereo not drawn) [Compound 198, 1-(4-methylthieno[3,2-d]pyridazin-7-yl)-N^3-(4-(4-(bicyclo[2.2.1]heptan-2-yl)-piperazin-1-yl)phenyl)-1H-1,2,4-triazole-3,5-diamine] |  |
|  |  | Nc1nc(Nc2ccc(N3CCN(C4CCCC4)CC3)c(F)c2)n(-c2nc3ccccc3c3ccccc23)n1 [Compound 205, 1-(phenanthridin-6-yl)-N^5-(3-fluoro-4-(4-cyclopentylpiperazin-1-yl)phenyl)-1H-1,2,4-triazole-3,5-diamine] | IC50 (Hela cells, phospho-Akt readout, Table 4, formula (Ib2)): < 1000 nM |
|  |  | CNC(=O)c1ccc(Nc2nc(NC)n(-c3ccccc3)n2)cc1 [Compound 246, 1-phenyl-N^3-(4-(methylaminocarbonyl)-phenyl)-N^5-methyl-1H-1,2,4-triazole-3,5-diamine] | IC50 [3]: > 20000 nM |
|  |  | COc1cc2ncnc(-n3nc(Nc4ccc(CN5CCN(C)CC5)cc4)nc3N)c2cc1OC [Compound 173, 1-(6,7-dimethoxyquinazolin-4-yl)-N^3-(4-((4-methylpiperazin-1-yl)methyl)phenyl)-1H-1,2,4-triazole-3,5-diamine] | IC50 [3]: < 1000 nM |
| < 1000 nM |  | Cc1csc2c(-n3nc(Nc4ccc(C5CCN(C6CC7CCC6C7)CC5)cc4)nc3N)nc(Cl)nc12 (stereo not drawn) [Compound 134, N^3-(4-(1-(bicyclo[2.2.1]heptan-2-yl)piperidin-4-yl)phenyl)-1-(2-chloro-7-methylthieno[3,2-d]pyrimidin-4-yl)-1H-1,2,4-triazole-3,5-diamine] |  |
|  | < 1000 nM | Nc1nc(Nc2ccc(OCCN3CCCC3)cc2)nn1-c1ncnc2sc3c(c12)CCCC3 [Compound 61, 1-(5,6,7,8-tetrahydrobenzo[4.,5]thieno[2,3-d]pyrimidin-4-yl)-N^3-(4-(2-(pyrrolidin-1-yl)ethoxy)phenyl)-1H-1,2,4-triazole-3,5-diamine] |  |
| < 1000 nM |  | COc1cc2ncnc(-n3nc(Nc4ccc(N5CCN(C6CC7CCC6C7)CC5)cc4)nc3N)c2cc1OC (stereo not drawn) [Compound 98, N^3-(4-(4-(bicyclo[2.2.1]heptan-2-yl)piperazin-1-yl)phenyl)-1-(6,7-dimethoxyquinazolin-4-yl)-1H-1,2,4-triazole-3,5-diamine] |  |
|  | < 1000 nM | Nc1nc(Nc2ccc(OCCN3CCCC3)cc2)nn1-c1ncnc2cc(-c3ccccc3)sc12 [Compound 52, 1-(6-phenylthieno[3,2-d]pyrimidin-4-yl)-N^3-(4-(2-(pyrrolidin-1-yl)ethoxy)phenyl)-1H-1,2,4-triaozle-3,5-diamine] |  |
| 1000 to 10000 nM |  | Nc1nc(Nc2ccc(N3CCN(C4CC5CCC4C5)CC3)cc2)nn1-c1ncnc2sc3c(c12)CCC3 (stereo not drawn) [Compound 132, N^3-(4-(4-(bicyclo[2.2.1]heptan-2-yl)piperazin-1-yl)phenyl)-1-(6,7-dihydro-5H-cyclopenta[4,5]thieno[2,3-d]pyrimidin-4-yl)-1H-1,2,4-triazole-3,5-diamine] |  |
|  |  | CC(=O)c1ccc(Nc2nc(N)n(-c3ccccc3F)n2)cc1 [Compound 147, 1-(4-(5-amino-1-(2-fluorophenyl)-1H-1,2,4-triazol-3-ylamino)phenyl)ethanone] | IC50 [3]: > 20000 nM |

| IC50 [1] | IC50 [2] | SMILES | other results |
| --- | --- | --- | --- |
|  | < 1000 nM | Nc1nc(Nc2ccc(OCCN3CCCC3)cc2)nn1-c1nccc2occc12 [Compound 69, 1-(furo[3,2-c]pyridin-4-yl)-N^3-(4-(2-(pyrrolidin-1-yl)ethoxy)phenyl)-1H-1,2,4-triazole-3,5-diamine] |  |
| 1000 to 10000 nM |  | Nc1nc(Nc2ccc(N3CCN(C4CC5CCC4C5)CC3)cc2)nn1-c1cnc2ccccc2n1 (stereo not drawn) [Compound 97, N^3-(4-(4-(bicyclo[2.2.1]heptan-2-yl)piperazin-1-yl)phenyl)-1-(quinoxalin-2-yl)-1H-1,2,4-triazole-3,5-diamine] |  |
| < 1000 nM |  | COc1cc2cnc(-n3nc(Nc4ccc(N5CCN(C6CCCCC6)CC5)c(F)c4)nc3N)nc2cc1OC [Compound 181, 1-(6,7-dimethoxyquinazolin-2-yl)-N^3-(3-fluoro-4-(4-cyclohexylpiperazin-1-yl)phenyl)-1H-1,2,4-triazole-3,5-diamine] |  |
|  |  | Nc1nc(Nc2ccc(CCC(=O)N3CCCC3)cc2)nn1-c1cnc2ccccc2n1 [Compound 152, 3-(4-(5-amino-1-(quinoxalin-2-yl)-1H-1,2,4-triazol-3-ylamino)phenyl)-1-(pyrrolidin-1-yl)propan-1-one] | IC50 [3]: > 20000 nM |
|  | > 20000 nM | Nc1nc(Nc2ccc(OCCN3CCCCC3)cc2)nn1-c1ccnc(Cl)c1 [Compound 10, 1-(2-chloropyridin-4-yl)-N^3-(4-(2-(piperidin-1-yl)ethoxy)phenyl)-1H-1,2,4-triazole-3,5-diamine] |  |
|  | < 1000 nM | Nc1nc(Nc2ccc(OCCN3CCCC3)c(F)c2)nn1-c1nc2ccccc2s1 [Compound 56, 1-(benzo[d]thiazol-2-yl)-N^3-(3-fluoro-4-(2-(pyrrolidin-1-yl)ethoxy)phenyl)-1H-1,2,4-triazole-3,5-diamine] |  |
| < 1000 nM |  | COc1cc2ncnc(-n3nc(Nc4ccc(N5CCN(C6CCCCC6)CC5)c(Cl)c4)nc3N)c2cc1OC [Compound 114, N^3-(3-chloro-4-(4-cyclohexylpiperazin-1-yl)phenyl)-1-(6,7-dimethoxyquinazolin-4-yl)-1H-1,2,4-triazole-3,5-diamine] |  |
|  | < 1000 nM | Nc1nc(Nc2ccc(OCCN3CCCC3)c(F)c2)nn1-c1cnc2ccccc2n1 [Compound 55, N^3-(3-fluoro-4-(2-(pyrrolidin-1-yl)ethoxy)phenyl)-1-(quinoxalin-2-yl)-1H-1,2,4-triazole-3,5-diamine] |  |
|  |  | CCN(CC)C1CCN(c2ccc(Nc3nc(N)n(-c4nc(Cl)nc5c(C)csc45)n3)cc2F)C1 (stereo not drawn) [Compound 211, 1-(7-methyl-2-chlorothieno[3,2-d]pyrimidin-4-yl)-N^3-(3-fluoro-4-(3-diethylaminopyrrolidin-1-yl)phenyl)-1H-1,2,4-triazole-3,5-diamine] | IC50 [3]: < 1000 nM |
| < 1000 nM |  | CN1CCN(c2ccc(Nc3nc(N)n(-c4nccc5ccccc45)n3)cc2F)CC1 [Compound 90, N^3-(3-fluoro-4-(4-methylpiperazin-1-yl)phenyl)-1-(isoquinolin-1-yl)-1H-1,2,4-triazole-3,5-diamine] |  |
| 1000 to 10000 nM |  | Nc1nc(Nc2ccc(N3CCN([C@H]4C[C@@H]5CC[C@H]4C5)CC3)c(F)c2)nn1-c1ccc(-c2ccccc2)nn1 [Compound 229, 1-(6-phenylpyridazin-3-yl)-N^3-(3-fluoro-4-(4-((1S,2S,4R)-bicyclo[2.2.1]heptan-2-yl)piperazin-1-yl)phenyl)-1H-1,2,4-triazole-3,5-diamine] |  |
|  |  | Nc1nc(Nc2cccc(O)c2)nn1-c1ccccn1 [Compound 150, 3-(5-amino-1-(pyridin-2-yl)-1H-1,2,4-triazol-3-ylamino)phenol] | IC50 [3]: > 20000 nM |
|  | > 20000 nM | Nc1nc(Nc2ccc(OCCN3CCCC3)cc2)nn1-c1nc(O)c2c(n1)CCCC2 [Compound 76, 2-(5-amino-3-(4-(2-(pyrrolidin-1-yl)ethoxy)phenylamino)-1H-1,2,4-triazol-1-yl)-5,6,7,8-tetrahydroquinazolin-4-ol] |  |
| < 1000 nM |  | Cc1nnc(-n2nc(Nc3ccc(N4CCN([C@H]5CC6CCC5C6)CC4)c(Cl)c3)nc2N)c2sccc12 (stereo partly drawn) [Compound 231, 1-(4-methylthieno[3,2-d]pyridazin-7-yl)-N^3-(3-chloro-4-(4-((2)S-bicyclo[2.2.1]heptan-2-yl)piperazin-1-yl)phenyl)-1H-1,2,4-triazole-3,5-diamine] |  |
|  | < 1000 nM | Nc1nc(Nc2ccc(OCCN3CCCC3)cc2)nn1-c1cc2c(nn1)-c1ccccc1CC2 [Compound 75, 1-(5,6-dihydrobenzo[h]cinnolin-3-yl)-N^3-(4-(2-(pyrrolidin-1-yl)ethoxy)phenyl)-1H-1,2,4-triazole-3,5-diamine] |  |
|  |  | Nc1nc(Nc2ccc(-c3cnco3)cc2)nn1-c1nccc2ccccc12 [Compound 166, 1-(isoquinolin-1-yl)-N^3-(4-(oxazol-5-yl)phenyl)-1H-1,2,4-triazole-3,5-diamine] | IC50 [3]: > 20000 nM |
